{"source": "paper PMC9878307", "about": "“Derivatives of 2-aminobenzimidazole potentiate ASIC open state with slow kinetics of activation and desensitization” (Frontiers in Physiology, 2023)", "type_in_all_cases": "cell-based", "key": {"ASIC1a": {"molecular_target": "T1, ASIC1a (Rattus norvegicus, UniProt P55926)", "T1 construct": "gene Asic1; rASIC1a homomer expressed in CHO cells", "T1 sequence (P55926 1-526)": "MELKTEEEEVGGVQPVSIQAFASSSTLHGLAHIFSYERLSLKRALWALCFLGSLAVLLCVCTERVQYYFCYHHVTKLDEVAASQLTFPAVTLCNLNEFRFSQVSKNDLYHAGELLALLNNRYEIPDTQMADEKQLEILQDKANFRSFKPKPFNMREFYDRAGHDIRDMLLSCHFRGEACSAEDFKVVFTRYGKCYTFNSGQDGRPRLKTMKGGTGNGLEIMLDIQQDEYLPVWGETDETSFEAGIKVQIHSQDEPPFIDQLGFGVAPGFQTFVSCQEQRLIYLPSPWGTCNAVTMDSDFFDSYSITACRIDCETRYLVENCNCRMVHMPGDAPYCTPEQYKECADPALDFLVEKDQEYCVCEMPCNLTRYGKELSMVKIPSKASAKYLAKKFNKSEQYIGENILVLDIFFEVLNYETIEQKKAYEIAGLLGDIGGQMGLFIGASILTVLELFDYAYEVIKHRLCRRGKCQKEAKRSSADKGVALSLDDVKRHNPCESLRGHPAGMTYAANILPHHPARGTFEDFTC", "assay": "whole-cell patch clamp, slowed desensitization ([…] at […], […] at […]), amplitude unchanged"}, "ASIC2a [1]": {"molecular_target": "T2, ASIC2a (Rattus norvegicus, UniProt Q62962)", "T2 construct": "gene Asic2; rASIC2a homomer expressed in CHO cells", "T2 sequence (Q62962 1-512)": "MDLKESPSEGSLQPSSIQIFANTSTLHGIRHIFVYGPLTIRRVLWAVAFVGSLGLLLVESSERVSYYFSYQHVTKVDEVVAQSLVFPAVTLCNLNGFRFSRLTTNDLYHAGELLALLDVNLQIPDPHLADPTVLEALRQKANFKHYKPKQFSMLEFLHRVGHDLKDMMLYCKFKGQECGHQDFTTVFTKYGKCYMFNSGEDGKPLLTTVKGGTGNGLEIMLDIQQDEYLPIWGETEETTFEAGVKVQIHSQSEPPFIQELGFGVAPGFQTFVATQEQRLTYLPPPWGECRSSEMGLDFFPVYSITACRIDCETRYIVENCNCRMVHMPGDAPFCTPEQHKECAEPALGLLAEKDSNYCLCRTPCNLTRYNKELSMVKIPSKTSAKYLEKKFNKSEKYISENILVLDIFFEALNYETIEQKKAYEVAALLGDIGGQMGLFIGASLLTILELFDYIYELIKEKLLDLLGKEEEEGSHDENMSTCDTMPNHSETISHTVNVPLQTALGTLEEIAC", "assay": "whole-cell patch clamp, potentiation of acid-evoked peak current at pH […]"}, "ASIC3": {"molecular_target": "T3, ASIC3 (Rattus norvegicus, UniProt O35240)", "T3 construct": "rASIC3 expressed in CHO cells", "T3 sequence (O35240 1-533)": "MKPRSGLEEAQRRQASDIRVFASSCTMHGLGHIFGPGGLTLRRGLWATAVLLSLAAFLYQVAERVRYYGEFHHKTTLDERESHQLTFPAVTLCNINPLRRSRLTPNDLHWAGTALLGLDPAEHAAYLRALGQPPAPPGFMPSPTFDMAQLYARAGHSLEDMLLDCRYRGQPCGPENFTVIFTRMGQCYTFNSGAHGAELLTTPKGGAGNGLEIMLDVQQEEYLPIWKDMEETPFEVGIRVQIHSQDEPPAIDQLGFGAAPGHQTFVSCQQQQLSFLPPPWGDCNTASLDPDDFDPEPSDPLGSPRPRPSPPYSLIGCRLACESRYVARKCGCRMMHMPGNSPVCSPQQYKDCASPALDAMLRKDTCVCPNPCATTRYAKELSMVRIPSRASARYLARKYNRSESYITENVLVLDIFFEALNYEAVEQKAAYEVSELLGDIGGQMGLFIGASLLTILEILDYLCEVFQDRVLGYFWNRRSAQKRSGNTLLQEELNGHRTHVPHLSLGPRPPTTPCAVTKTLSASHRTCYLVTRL", "assay": "whole-cell patch clamp, […] inhibition of peak current at […]"}, "ASIC2a [2]": {"molecular_target": "T2, ASIC2a", "assay": "whole-cell patch clamp, […] inhibition of peak current at […], pH […]", "details": "pH 5"}}}
{"compound": "Nc1n(CC(=O)c2ccc(F)cc2)c2ccccc2[n+]1CCN1CCOCC1", "note": "[Ru-1355]", "values": [{"measurement": "fold slowing of desensitization", "setting": "ASIC1a", "result": "1.28 ± 0.15"}, {"measurement": "EC50", "setting": "ASIC2a [1]", "result": "7.52 ± 0.33", "unit": "µM"}]}
{"compound": "N=C(N)c1ccc(/N=N/Nc2ccc(C(=N)N)cc2)cc1", "note": "[diminazene]", "values": [{"measurement": "inhibition at 70 µM", "setting": "ASIC3", "result": "74 ± 8", "unit": "%"}, {"measurement": "inhibition at 70 µM", "setting": "ASIC2a [2]", "result": "75 ± 12", "unit": "%"}]}
